This is an account of results in publication PMC7070682, “Alpha-Glucosidase- and Lipase-Inhibitory Phenalenones from a New Species of Pseudolophiostoma Originating from Thailand” (Molecules, 2020).

Values after ≈ are worked out from the molar mass of the structure shown. A value given as a limit tells only on which side of the number the result lay.

One assay addresses α-glucosidase. Kind of assay: α-Glucosidase assay (p-NPG substrate). The class given is biochemical. Here is the method: α-Glucosidase assay. The substrates p-nitrophenyl α-glucopyranoside (p-NPG) and α-glucosidase were purchased from Sigma (St. Louis, USA). […] The standard assay protocol established by the Enzyme Inhibition Laboratory was adopted with minor modifications. First, 0.85 units/mL enzyme and 0.7mM of substrate were used for the initial screening of the fungal extracts, and 100mM sodium phosphate buffer containing 50 mM NaCl was prepared in deionized water (pH 6.8). The change in the absorbance was monitored initially before incubation and 30 min after the addition of p-NPG substrate. Percentage inhibition of enzyme by various test compounds was calculated using the formula: % inhibition= (ABS of Blank −ABS of Sample)/ABS of Blank× 100

For assay [1], the system named is mouse fibroblast (L929) cells. As to the kind of experiment: Cytotoxicity assessment vs. L929. It is filed as cell-based. As for the experimental part:
(§1) To verify the predicted toxicity of compounds 1–3, a cytotoxicity assessment (Table 4) was performed against mouse fibroblast (L929) and HeLa (KB3.1) cells, as previously reported.
(§2) The cytotoxic effects of the compounds were evaluated using a standard procedure.

The subject of the next assay is HeLa (KB3.1) cells. Kind of assay: Cytotoxicity assessment vs. KB3.1. It is filed as cell-based. Particulars: Homo sapiens, KB 3-1. Here is the method:
as §1, §2

The next assay addresses T1, porcine lipase (Sus scrofa, UniProt P00591).
T1 sequence (P00591 1-450): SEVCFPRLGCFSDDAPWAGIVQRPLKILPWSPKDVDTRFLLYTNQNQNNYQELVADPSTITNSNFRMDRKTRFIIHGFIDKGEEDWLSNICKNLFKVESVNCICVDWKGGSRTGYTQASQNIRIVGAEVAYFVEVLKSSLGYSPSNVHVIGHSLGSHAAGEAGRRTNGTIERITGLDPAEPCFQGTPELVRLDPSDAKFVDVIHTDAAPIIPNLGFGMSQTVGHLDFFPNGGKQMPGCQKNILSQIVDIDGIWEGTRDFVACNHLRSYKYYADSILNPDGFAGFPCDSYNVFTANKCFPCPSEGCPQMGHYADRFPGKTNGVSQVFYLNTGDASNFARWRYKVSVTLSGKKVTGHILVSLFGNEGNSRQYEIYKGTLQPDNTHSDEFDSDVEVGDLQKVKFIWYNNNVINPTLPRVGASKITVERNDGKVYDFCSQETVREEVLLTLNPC
As to the kind of experiment: Pancreatic lipase assay (p-nitrophenyl butyrate hydrolysis). It is filed as biochemical. Conditions: for IC50: p-nitrophenyl butyrate substrate. Here is the method:
Pancreatic Lipase Assay. […] Thirty five microliters of each test compound in DMSO, 15 µL of pancreatic lipase enzyme (1 mg/mL buffer), and 45 µL Tris-HCl buffer (2.5 mmol Tris, pH = 7.4 and 2.5 mmol NaCl) were mixed in a 96 well microtiter plate and incubated at 25 °C for 15 min. The enzymatic hydrolysis was started upon the addition of 15 µL p-nitrophenyl butyrate (p-NPB). The number of p-nitrophenolate ions generated by the reaction was monitored using microplate reader, measured before incubation and 30 min after the addition of the substrate with corresponding change in absorbance at 405 nm.

Details of assay [2]: method as in PMID 21923104. Conditions: previously shown; cited from earlier work.

As a reminder, the IC50 is the midpoint of a concentration-inhibition curve. Read a high IC50 as weaker potency in that assay. As for `Cc1cc(O)c2c3c(c(O)c4c(c13)O[C@@H](C)C4(C)C)C(=O)C(=O)O2` [Compound 1, scleroderolide], the IC50 is 48.7 µM against α-glucosidase, 15 µg/mL (≈ 45.7 µM) in assay [1], 21 µg/mL (≈ 64 µM) in the assay on HeLa (KB3.1) cells and 3.4 µM against porcine lipase.
`Cc1cc(O)c2c3c(c(O)c4c(c13)O[C@@H](C)C4(C)C)C(=O)C2=O` [Compound 2, sclerodione]: the concentration for half-maximal inhibition (IC50) against α-glucosidase was found to be 120 µM; in assay [1] it was 27 µg/mL (≈ 86.4 µM); with HeLa (KB3.1) cells it was 18 µg/mL (≈ 57.6 µM); on porcine lipase, 1 µM. In addition, the antimicrobial activities entry in assay [2] is listed as “moderate”. For the same compound, the “times more potent than orlistat (lipase inhibition)” value on porcine lipase (relative to positive control orlistat) came to 9 times.
Turning to `Cc1cc(O)cc2c1C1=C(C(=O)C2=O)C(C)(C)[C@H](C)O1` [Compound 3, trypethelone], the IC50 on α-glucosidase is over 100 µM; in assay [1], 2.7 µg/mL (≈ 9.92 µM); with HeLa (KB3.1) cells it was 4.2 µg/mL (≈ 15.4 µM); at porcine lipase, over 100 µM.
Turning to `C/C(=C\c1csc(C)n1)[C@@H]1C[C@@H]2O[C@]2(C)CCC[C@H](C)[C@H](O)[C@@H](C)C(=O)C(C)(C)[C@@H](O)CC(=O)O1` [Epothilone B, reference compound], the IC50 in assay [1] came to 0.0009 µg/mL (≈ 0.00177 µM); in the assay with HeLa (KB3.1) cells, 4e-05 µg/mL (≈ 7.88e-05 µM).
